Experimental findings from ChEMBL document CHEMBL1122604, “(E)-2-(3,4-dimethoxyphenyl)-3-fluoroallylamine: a selective, enzyme-activated inhibitor of type B monoamine oxidase” (J Med Chem, 1984) are described below.

Series [1] in a line: The minimum half-life at apparent dissociation concentration of 40 uM at 10 degrees Centigrade. Format: ADME.
Series [2] in a line: The minimum half-life at saturation concentration of 130 uM at 10 degrees Centigrade. Format: ADME. To be noted: read-out: T50.
Series [3] concerns the target T1, Amine oxidase [flavin-containing] A (Rattus norvegicus, UniProt P21396).
T1 sequence (P21396 whole entry): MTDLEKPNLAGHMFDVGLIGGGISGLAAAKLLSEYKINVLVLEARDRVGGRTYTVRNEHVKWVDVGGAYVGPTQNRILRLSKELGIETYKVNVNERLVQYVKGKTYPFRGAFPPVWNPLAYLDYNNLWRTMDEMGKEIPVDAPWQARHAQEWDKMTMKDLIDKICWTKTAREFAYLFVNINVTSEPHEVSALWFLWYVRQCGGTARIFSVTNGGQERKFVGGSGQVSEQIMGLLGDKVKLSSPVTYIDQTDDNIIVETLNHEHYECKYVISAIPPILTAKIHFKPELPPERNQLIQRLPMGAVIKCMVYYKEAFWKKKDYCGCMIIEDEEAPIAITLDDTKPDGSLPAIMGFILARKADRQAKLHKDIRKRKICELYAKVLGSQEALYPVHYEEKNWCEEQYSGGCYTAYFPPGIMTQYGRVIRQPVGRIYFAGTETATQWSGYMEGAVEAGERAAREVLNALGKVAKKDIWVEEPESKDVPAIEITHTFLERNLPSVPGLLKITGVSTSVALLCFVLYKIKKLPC
The series is described as follows: Inhibition of monoamine oxidase (MAO) type A by administering the compound perorally at a dose level of 0.5 mg/(kg day). The conditions noted are these: po. Format: functional.

The target in series [4] is T2, Amine oxidase [flavin-containing] B (Rattus norvegicus, UniProt P19643).
T2 sequence (P19643 whole entry): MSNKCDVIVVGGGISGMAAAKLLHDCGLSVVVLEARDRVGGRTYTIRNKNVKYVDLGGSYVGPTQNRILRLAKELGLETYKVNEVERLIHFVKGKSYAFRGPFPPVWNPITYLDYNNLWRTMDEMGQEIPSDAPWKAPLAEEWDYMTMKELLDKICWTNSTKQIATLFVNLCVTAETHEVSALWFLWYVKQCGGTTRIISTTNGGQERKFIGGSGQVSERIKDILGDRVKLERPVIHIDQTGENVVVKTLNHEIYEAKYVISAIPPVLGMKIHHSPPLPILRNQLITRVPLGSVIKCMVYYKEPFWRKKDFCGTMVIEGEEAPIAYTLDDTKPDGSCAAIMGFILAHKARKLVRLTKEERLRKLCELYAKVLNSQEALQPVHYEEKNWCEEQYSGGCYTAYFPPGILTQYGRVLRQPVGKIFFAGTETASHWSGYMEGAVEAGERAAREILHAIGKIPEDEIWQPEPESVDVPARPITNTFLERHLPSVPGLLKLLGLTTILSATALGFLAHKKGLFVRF
Nature of the series: Inhibition of monoamine oxidase (MAO) type B by administering the compound perorally at a dose level of 0.5 mg/(kg day). To be noted: po. Format: functional.

For series [5], the species on record is Rattus norvegicus. The series is described as follows: Compound was evaluated for apparent kinetic dissociation (Ki) using Kitz and Wilson method. Format: functional, organism-based.
The target in series [6] is T1, Amine oxidase [flavin-containing] A. The series is described as follows: Inhibition of monoamine oxidase (MAO) type A by administering the compound perorally at a dose level of 2.5 mg/(kg day). It counts as functional. To be noted: po.

Where “and” joins values, the source holds several entries; their conditions need not be identical. Equal entries are not always repeated.

Consider `COc1ccc(/C(=C\F)CN)cc1OC.Cl`, for which, in series [1], the T50 stood at 1.7 min. In addition, the half-life at 130 µM in series [2] worked out at 14.5 min. Further, the Inhibition in series [3] was < 15%; in series [4], > 85%; in series [6] it was 50%. Also, in series [5], the Ki was 40 µM and 130 µM.
